Measured values: patent US20050209278A1, “Piperidinyl- and piperazinyl-sulfonylmethyl hydroxamic acids and their use as protease inhibitors” (priority 2002, published 2005)

Tests used:
[1] = target: T1, MMP-14 (Homo sapiens, UniProt P50281); assay: In vitro MMP inhibition, Ki determination (fluorogenic substrate II); format: biochemical; details: value not in parenthesis; read-out: MMP-14 Ki
T1 construct: The catalytic domain enzyme was expressed in E. coli inclusion bodies, solubilized in urea; made in house
Summary of the method: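 Apparent Ki was fitted with Morrison's equation from reaction rates at a single low enzyme level. Enzyme was APMA- or trypsin-activated refolded MMP-14 catalytic domain, buffered at pH 7.5 with 10 mM CaCl2.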

[2] = target: T2, MMP-2 (Homo sapiens, UniProt P08253); assay: as above; format: biochemical; details: value not in parenthesis; read-out: MMP-2 Ki
T2 construct: made in house; host or cells: MMP-2-transfected p2AHT2 cells
T2 sequence (P08253 110-660): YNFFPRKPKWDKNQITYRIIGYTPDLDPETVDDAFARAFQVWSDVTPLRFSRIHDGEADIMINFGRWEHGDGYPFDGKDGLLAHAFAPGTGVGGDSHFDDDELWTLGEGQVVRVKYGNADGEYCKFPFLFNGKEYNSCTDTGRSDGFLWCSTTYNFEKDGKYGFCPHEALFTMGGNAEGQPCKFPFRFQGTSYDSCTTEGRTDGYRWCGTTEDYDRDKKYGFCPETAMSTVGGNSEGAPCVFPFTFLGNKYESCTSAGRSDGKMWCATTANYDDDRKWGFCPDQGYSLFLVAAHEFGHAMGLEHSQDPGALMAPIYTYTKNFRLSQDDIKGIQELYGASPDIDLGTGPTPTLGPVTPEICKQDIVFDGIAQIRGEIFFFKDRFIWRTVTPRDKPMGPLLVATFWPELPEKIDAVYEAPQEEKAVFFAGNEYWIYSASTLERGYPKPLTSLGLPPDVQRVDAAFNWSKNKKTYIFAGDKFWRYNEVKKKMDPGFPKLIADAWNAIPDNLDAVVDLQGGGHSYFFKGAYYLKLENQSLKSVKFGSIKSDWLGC

| Structure (SMILES) | Ki [1] [µM] | Ki [2] [nM] |
| --- | --- | --- |
| COc1ccc(-c2ccc(N3CCN(S(=O)(=O)C4(C(=O)NO)CCOCC4)CC3)nc2)cc1 [Example 61] | 0.199 | 0.39 |
| O=C(NO)C1(S(=O)(=O)N2CCN(c3ccc(OC(F)(F)C(F)F)cc3)CC2)CCSCC1 [Example 62] | 1.15 | 0.22 |
| O=C(NO)C1(S(=O)(=O)N2CCN(c3ccc4c(c3)OC(F)(F)C(F)(F)O4)CC2)CCOCC1 [Example 67] | > 10 | 50.5 |
| O=C(NO)C1(S(=O)(=O)N2CCN(c3ccc(COCC(F)(F)C(F)(F)F)cc3)CC2)CCOCC1 [Example 70] | > 10 | 2.57 |
| CCCCOc1c(F)cc(N2CCN(S(=O)(=O)C3(C(=O)NO)CCN(CCOC)CC3)CC2)cc1F [Example 165] | 3.65 | 0.49 |
| COCCN1CCC(C(=O)NO)(S(=O)(=O)N2CCN(c3ccc(OCC(C)C)c(F)c3)CC2)CC1 [Example 166] | > 10 | 0.72 |
| CCCCCc1ccc(N2CCN(S(=O)(=O)C3(C(=O)NO)CCOCC3)CC2)nc1 [Example 167] | 0.458 | 0.11 |
| O=C(NO)C1(S(=O)(=O)N2CCN(c3ccccn3)CC2)CCOCC1 [Example 169] | 0.0849 | 1.09 |
| O=C(NO)C1(S(=O)(=O)N2CCN(c3ccc(SC(F)(F)F)cc3)CC2)CCOCC1 [Example 170] | 0.453 | 0.24 |
| COCCN1CCC(C(=O)NO)(S(=O)(=O)N2CCN(c3ccccn3)CC2)CC1 [Example 176] | 0.181 | 1.59 |
| CCCc1cnc(N2CCN(S(=O)(=O)C3(C(=O)NO)CCN(CCOC)CC3)CC2)nc1 [Example 178] | 2.59 | 7.88 |
| COCCN1CCC(C(=O)NO)(S(=O)(=O)N2CCN(c3ccc(CCCCC(C)C)cc3)CC2)CC1 [Example 191] | 6.69 | 0.986 |
| COCCN1CCC(C(=O)NO)(S(=O)(=O)N2CCN(c3nc4ccccc4o3)CC2)CC1 [Example 196] | 6.84 | 25.1 |
| CCCCCc1ccc(N2CCN(S(=O)(=O)C3(C(=O)NO)CCOCC3)CC2)nn1 [Example 197] | > 10 | 5.78 |
| O=C(NO)C1(S(=O)(=O)N2CCN(c3ccc(Cl)nn3)CC2)CCOCC1 [Example 198] | 1.28 | 8.28 |
| O=C(NO)C1(S(=O)(=O)N2CCN(c3ccc(OC(F)(F)F)cc3)CC2)CCN(C2CC2)CC1 [Example 203] | 0.569 | 0.28 |
| Cc1ccc(-c2ccc(N3CCN(S(=O)(=O)C4(C(=O)NO)CCOCC4)CC3)cc2)cc1 [Example 207] | > 10 | 2.02 |
| O=C(NO)C1(S(=O)(=O)N2CCN(c3ccc(-c4ccc(F)cc4)cc3)CC2)CCOCC1 [Example 208] | 0.621 | 0.24 |
| O=C(NO)C1(S(=O)(=O)N2CCN(c3cnc(CCCC(F)(F)F)cn3)CC2)CCOCC1 [Example 209] | > 10 | 3.79 |
| O=C(NO)C1(S(=O)(=O)N2CCN(c3cnc(CCC(F)(F)C(F)(F)F)cn3)CC2)CCOCC1 [Example 210] | 4.47 | 1.04 |
| O=C(NO)C1(S(=O)(=O)N2CCN(c3ccc(OCC(F)(F)C(F)(F)F)cc3)CC2)CCOCC1 [Example 212] | 5.63 | 0.54 |
| CC(C)Cc1ccc(N2CCN(S(=O)(=O)C3(C(=O)NO)CCOCC3)CC2)c(F)c1 [Example 213] | 4.28 | 12.6 |
| CCCCc1nnc(N2CCN(S(=O)(=O)C3(C(=O)NO)CCOCC3)CC2)s1 [Example 214] | > 10 | 102 |
| O=C(NO)C1(S(=O)(=O)N2CCN(c3nncs3)CC2)CCOCC1 [Example 215] | > 10 | 2370 |
| CCCc1nnc(N2CCN(S(=O)(=O)C3(C(=O)NO)CCOCC3)CC2)s1 [Example 216] | > 10 | 214 |
| CCCCc1ccc(N2CCN(S(=O)(=O)C(C)C(=O)NO)CC2)nc1 (stereo not drawn) [Example 217] | 1.51 | 0.29 |
| O=C(NO)C1(S(=O)(=O)N2CCN(c3cnc(CCC(F)(F)F)cn3)CC2)CCOCC1 [Example 218] | 4.57 | 1.39 |
| CCCCCc1cnc(N2CCN(S(=O)(=O)C3(C(=O)NO)CCOCC3)CC2)cn1 [Example 219] | 3.21 | 2.5 |

Next, values leading:

| Ki [1] [µM] | Ki [2] [nM] | Structure (SMILES) |
| --- | --- | --- |
| > 10 | 6.77 | CCCCOc1ccc(N2CCN(S(=O)(=O)C3(C(=O)NO)CC3)CC2)cc1 [Example 63] |
| > 10 | 23.6 | CCCCOc1ccc(N2CCN(S(=O)(=O)C3(C(=O)NO)CCN(c4ccc(OC(F)(F)C(F)F)cc4)CC3)CC2)cc1 [Example 65] |
| 2.43 | 0.75 | CCCCOc1ccc(N2CCN(S(=O)(=O)C3(C(=O)NO)CCN(C(=O)c4ccco4)CC3)CC2)cc1 [Example 156] |
| 2.76 | 1.47 | CCCCOc1ccc(N2CCN(S(=O)(=O)C3(C(=O)NO)CCN(c4nccs4)CC3)CC2)cc1 [Example 157] |
| 2.06 | 0.702 | CCCCOc1ccc(N2CCN(S(=O)(=O)C3(C(=O)NO)CCN(c4ncccn4)CC3)CC2)cc1 [Example 159] |
| 2.76 | 0.599 | CCCCOc1ccc(N2CCN(S(=O)(=O)C3(C(=O)NO)CCN(C(=O)c4cccs4)CC3)CC2)cc1 [Example 160] |
| > 10 | 8.26 | Cc1ccc(N2CCC(C(=O)NO)(S(=O)(=O)N3CCN(c4ccc(OCCCC(F)(F)F)cc4)CC3)CC2)cc1 [Example 161] |
| > 10 | 18.4 | O=C(NO)C1(S(=O)(=O)N2CCN(c3ccc(OCCN4CCCC4)cc3)CC2)CCOCC1 [Example 162] |
| 8.88 | 28.6 | CCCCOc1ccc(N2CCN(S(=O)(=O)C3(C(=O)NO)CCN(CCOC)CC3)CC2)cn1 [Example 164] |
| 4.11 | 6.82 | CCCc1ccc(N2CCN(S(=O)(=O)C3(C(=O)NO)CCN(c4ccc(C)cc4)CC3)CC2)cc1 [Example 171] |
| 1.86 | 0.209 | CCCCc1ccc(N2CCN(S(=O)(=O)C3(C(=O)NO)CCN(CCOC)CC3)CC2)cc1F [Example 173] |
| 2.91 | 2.13 | COCCN1CCC(C(=O)NO)(S(=O)(=O)N2CCN(c3ccc(C(C)=O)cc3)CC2)CC1 [Example 174] |
| > 10 | 46.9 | CCCNC(=O)c1ccc(N2CCN(S(=O)(=O)C3(C(=O)NO)CCN(CCOC)CC3)CC2)cc1 [Example 175] |
| > 10 | 2.33 | CCCCC(=O)c1ccc(N2CCN(S(=O)(=O)C3(C(=O)NO)CCN(CCOC)CC3)CC2)cc1 [Example 177] |
| > 10 | 9.78 | CCCC(C)Cc1ccc(N2CCN(S(=O)(=O)C3(C(=O)NO)CCN(CCOC)CC3)CC2)cc1 (stereo not drawn) [Example 189] |
| 6.1 | 1.49 | CCC(C)Cc1ccc(N2CCN(S(=O)(=O)C3(C(=O)NO)CCN(CCOC)CC3)CC2)cc1 (stereo not drawn) [Example 190] |
| 6.98 | 1.9 | COCCN1CCC(C(=O)NO)(S(=O)(=O)N2CCN(c3ccc(CC(C)C)cc3)CC2)CC1 [Example 192] |
| 0.403 | 1.21 | CCc1ccc(N2CCN(S(=O)(=O)C3(C(=O)NO)CCN(CCOC)CC3)CC2)cc1 [Example 193] |
| 0.307 | 1.74 | COCCN1CCC(C(=O)NO)(S(=O)(=O)N2CCN(c3ccc(C)cc3)CC2)CC1 [Example 194] |
| 0.414 | 6.17 | COCCN1CCC(C(=O)NO)(S(=O)(=O)N2CCN(c3ccccc3)CC2)CC1 [Example 195] |
| 4.62 | 0.633 | CCCCCCc1ccc(N2CCN(S(=O)(=O)C3(C(=O)NO)CCN(CCOC)CC3)CC2)cc1 [Example 199] |
| 0.842 | 0.524 | CCCc1ccc(N2CCN(S(=O)(=O)C3(C(=O)NO)CCN(CCOC)CC3)CC2)cc1 [Example 200] |
| 0.12 | 0.521 | COCCN1CCC(C(=O)NO)(S(=O)(=O)N2CCN(c3ccc(Br)cc3)CC2)CC1 [Example 201] |
| 0.623 | 0.432 | COCCN1CCC(C(=O)NO)(S(=O)(=O)N2CCN(c3ccc(OC(F)(F)F)cc3)CC2)CC1 [Example 202] |
| 5.02 | 2.03 | CCCCCc1ccc(N2CCN(S(=O)(=O)C3(C(=O)NO)CCN(S(N)(=O)=O)CC3)CC2)cc1 [Example 205] |
| 0.11 | 0.63 | CCCCCc1ccc(N2CCN(S(=O)(=O)C3(C(=O)NO)CCN(C(=O)CC)CC3)CC2)cc1 [Example 206] |
| > 10 | 8.53 | CCCCOc1ccc(N2CCN(S(=O)(=O)C3(C(=O)NO)CCN(c4ccc5c(c4)OCO5)CC3)CC2)cc1 [Example 221] |
| > 10 | 7.88 | CCCCOc1ccc(N2CCN(S(=O)(=O)C3(C(=O)NO)CCS(=O)(=O)CC3)CC2)cc1 [Example 222] |
| 7.1 | 3.46 | CCCCOc1ccc(N2CCN(S(=O)(=O)C3(C(=O)NO)CCN(c4ccsc4)CC3)CC2)cc1 [Example 223] |
